The data set in a line: in vitro. The note with it: human, hela cells, % viability.

Broadly, the viability is a read-out of living cells in per cent, often relative to untreated cells. With `COC(=O)CCc1ccc(S(=O)(=O)N2CCCN(Cc3ccc(C)o3)CC2)cc1` [CBK063081], the viability at 28.5 h, 10 µM stood at 99.8%.
Take `CC(=O)Nc1ccc(-c2ccc(=O)n3c2[C@@H]2C[C@@H](CN(C(=O)c4ccccc4)C2)C3)cc1` [CBK289198]: the viability at 28.5 h, 10 µM stood at 89.4%.
With `COC(=O)c1cccc(OCCn2c(=O)c(C#N)cn(C3CC3)c2=O)c1` [CBK305990] the figure was 98.6%; with `Cc1cc(C(=O)O)ccc1-c1ccc(/C=N/n2cnnc2)o1` [CBK264713], 92.5%; with `CC(C)(C)OC(=O)N1CCN(c2ncc([N+](=O)[O-])s2)CC1` [CBK000135], 92.1%.
Consider `NNC(=O)CCn1c2ccc(Cl)cc2c2cc(Cl)ccc21` [CBK261413], for which the viability at 28.5 h, 10 µM was 88.8%.
For `O=C(c1ccno1)N1CCC(Cc2ccccc2)CC1` [CBK200185], the viability at 28.5 h, 10 µM is 112%.
As for `COc1ccc(Cc2cccc(C3CCN(C(=O)Cc4ccc(F)cc4)CC3)n2)cc1` [CBK286225], the viability at 28.5 h, 10 µM was found to be 95.6%.
Take `CCCCN(C)c1c(CC)nc2ccc(C(=O)NCCN3CCCC3)cn12` [CBK145440]: the viability at 28.5 h, 10 µM came out at 96.2%.
As to `NC(=O)COc1ccc(C2CC(=O)Nc3c(-c4cccc(F)c4)csc32)cc1` (stereo not shown) [CBK294441], the viability at 28.5 h, 10 µM came to 99.6%.
`O=c1oc(-c2cccc(F)c2)nc2cc(Cc3ccc4c(=O)oc(-c5cccc(F)c5)nc4c3)ccc12` [CBK262775]: the viability at 28.5 h, 10 µM is 121%.
With `COc1ccc(OC)c(N2Cc3ccc(OC)c(OC)c3C2=O)c1` [CBK113161] the figure was 82.9%.
For the compound `COc1ccccc1Cc1cccc(C2CCN(C(=O)Cc3c[nH]c4ccccc34)CC2)n1` [CBK286226], the viability at 28.5 h, 10 µM amounted to 92.8%.
With `Cc1ccn2c(F)c(C(=O)N3CCCCC3CN3CCOCC3)nc2c1` (stereo not shown) [CBK307028], the viability at 28.5 h, 10 µM worked out at 82%.
On to `CCOC(=O)C1CCCN(Cc2cccc(Cl)c2Cl)C1` (stereo not shown) [CBK307056], for which the viability at 28.5 h, 10 µM worked out at 85.2%.
As to `CCOc1ccccc1NC(=O)c1cc(CC(C)C)oc1C` [CBK057904], the viability at 28.5 h, 10 µM turned out to be 101%.
`O=C(/C=C/c1ccc2c(c1)OCO2)N1CCN(c2ncccn2)CC1` [CBK144501]: the viability at 28.5 h, 10 µM was 89.5%.
For `Cc1c(Cl)cccc1S(=O)(=O)Nc1c(C(=O)N2CCOCC2)[nH]c2ccccc12` [CBK050076], the viability at 28.5 h, 10 µM was determined as 109%.
For the compound `CC(C)(C)c1ccc(-c2cnc3nc(N)ccc3c2)cc1` [CBK061888], the viability at 28.5 h, 10 µM was 88.3%.
Regarding `CCOc1ncccc1C(=O)Nc1cnc2c(cnn2C(C)C)c1` [CBK306210], the viability at 28.5 h, 10 µM was 102%.
With `COc1cc(OC)cc(C(=O)Nc2cccc(-c3nc4ccccc4o3)c2)c1` [CBK097706], the viability at 28.5 h, 10 µM was found to be 95.5%.
Consider `O=C(O)CCc1ccc(-c2cccs2)n1CCOc1ccccc1Cl` [CBK267885], for which the viability at 28.5 h, 10 µM was found to be 89%.
With `Cc1ccc(CC(=O)N2CCCC2c2n[nH]cc2-c2ccncc2)cc1` (stereo not shown) [CBK283424], the viability at 28.5 h, 10 µM amounted to 106%.
Consider `Nc1ncc(-c2cc(C(F)(F)F)cc(C(F)(F)F)c2)nc1NC1CCC(O)CC1` (stereo not shown) [CBK063808], for which the viability at 28.5 h, 10 µM stood at 92%.
For `FC(F)(F)c1ccnc(OCc2ccc(-c3ccccc3)cc2)c1` [CBK115826], the viability at 28.5 h, 10 µM came out at 108%.
Turning to `COc1cc(CN2CCN(Cc3cccc([N+](=O)[O-])c3)CC2)cc(OC)c1` [CBK263156], the viability at 28.5 h, 10 µM is 95%.
For `COc1cc(Nc2cccc(-c3ccc4ccccc4c3)n2)cc(OC)c1OC` [CBK037612], the viability at 28.5 h, 10 µM is 97.9%.
On to `O=C(COc1ccccc1)Nc1ccccc1N1CCNCC1` [CBK028279T], for which the viability at 28.5 h, 10 µM is 108%.
Consider `O=C(COc1ccc2ccccc2c1Br)NCc1ccccn1` [CBK267361], for which the viability at 28.5 h, 10 µM was 84.1%.
Consider `CC(=O)OCc1ccc(CN2CCCCCC2c2cc(C)no2)o1` (stereo not shown) [CBK283007], for which the viability at 28.5 h, 10 µM amounted to 100%.
Regarding `CCNC(=O)NC1CC(C)(C)Cc2c1cnn2-c1ccc(OC)cc1` (stereo not shown) [CBK307313], the viability at 28.5 h, 10 µM came to 90.6%.
Consider `COc1cc(C2C3=C(CC(C)(C)CC3=O)OC3=C2C(=O)CC(C)(C)C3)ccc1OCC(=O)O` [CBK262379], for which the viability at 28.5 h, 10 µM came to 94.8%.
Regarding `CC(=O)NCC(=O)N1CC[C@@H]2NC(=O)CNC(=O)C3(CCCC[C@H]2C1)CCN(C(C)=O)CC3` [CBK292014], the viability at 28.5 h, 10 µM was 91.8%.
On to `O=C(CCc1nc2ccccc2c(=O)[nH]1)N1CCN(Cc2ccc(Cl)s2)CC1` [CBK296937], for which the viability at 28.5 h, 10 µM was found to be 83.9%.
As for `CC(C)(C)c1ccc(OCC(=O)Nn2cnnc2)cc1` [CBK027576], the viability at 28.5 h, 10 µM was 90.3%.
Turning to `COc1ccc(C(=O)OC(C)(C)C)c(-c2cncc(NCc3ccco3)n2)c1` [CBK037751], the viability at 28.5 h, 10 µM turned out to be 87.8%.
Take `O=c1ccc(-c2cccs2)nn1C[C@H]1CCCN1` [CBK284313]: the viability at 28.5 h, 10 µM stood at 88.6%.
In the case of `Cc1cccn2cc(C(=O)N3CC(C(=O)N4CCN(c5ccccc5)CC4)C3)nc12` [CBK285663], the viability at 28.5 h, 10 µM stood at 101%.
On to `O=C(NCc1cc(Br)ccc1F)C1CC(=O)N(Cc2ccccn2)C1` (stereo not shown) [CBK305242], for which the viability at 28.5 h, 10 µM is 85.7%.
For `O=[N+]([O-])c1ccc(Cc2cc[n+](-c3nc4ccccc4nc3[N-]S(=O)(=O)c3ccc([N+](=O)[O-])cc3)cc2)cc1` [CBK301201], the viability at 28.5 h, 10 µM turned out to be 84.3%.
Take `Cn1ccnc1C1(O)CC2CCC(C1)N2C(=O)C1CCCC1` (stereo not shown) [CBK284052]: the viability at 28.5 h, 10 µM was 86.4%.
For the compound `CN(C)[C@H]1CC[C@@H](Cc2ccccc2)C[C@@H]1NC(=O)c1ccc(Cl)c(Cl)c1` [CBK012488], the viability at 28.5 h, 10 µM is 97.3%.
Take `C=C(C)CN1CCN(CC(CC(=O)NCc2ccccc2)C(=O)O)CC1` (stereo not shown) [CBK286823]: the viability at 28.5 h, 10 µM turned out to be 98.1%.
As to `CC(C)c1nccn1CC(=O)N(C)C(C)c1ccc(F)c(F)c1` (stereo not shown) [CBK306443], the viability at 28.5 h, 10 µM was determined as 94.5%.
Consider `Cc1nc2c(C(=O)N3CCOCC3)cnn2c(C)c1Cc1ccccc1` [CBK162201], for which the viability at 28.5 h, 10 µM is 113%.
Turning to `CCc1nc(-c2ccc(C)c(S(=O)(=O)N3CCN(c4ccccc4)CC3)c2)no1` [CBK294434], the viability at 28.5 h, 10 µM amounted to 98.3%.
With `O=C(N/N=C/c1ccccc1Cl)c1ccc(C(=O)N/N=C/c2ccccc2Cl)cc1` [CBK261698] the figure was 108%; with `COc1cc(-c2cncc(NCCc3ccncc3)n2)cc(OC)c1OC` [CBK065405], 94.4%; with `Cc1nnc(C(C)Sc2nnc(N3CCC(C)CC3)n2Cc2ccco2)o1` (stereo not shown) [CBK298311], 96.6%.
With `COc1nc2ccccc2nc1CCc1nc(-c2ccccc2)no1` [CBK269840] the figure was 86%.
Regarding `O=C(CN1CCCCC1)NCCNc1ccc([N+](=O)[O-])cc1Cl` [CBK264922], the viability at 28.5 h, 10 µM was found to be 115%.
For `CCOC(=O)c1[nH]c2ccccc2c1NC(C)=O` [CBK086755], the viability at 28.5 h, 10 µM amounted to 92.7%.
With `CN(C)CCN(C)c1cncc(-c2cccc(C(F)(F)F)c2)n1` [CBK065584] the figure was 115%; with `Cc1oc2c(c1C(=O)NCCSc1nncn1C)C(=O)CCC2` [CBK306589], 92.5%.
On to `Cc1nc(CCCn2cnc3cnccc3c2=O)sc1C` [CBK306610], for which the viability at 28.5 h, 10 µM amounted to 102%.
Regarding `COc1ccc(Cl)cc1S(=O)(=O)N1CCC(C(=O)NCc2cccnc2)CC1` [CBK269878], the viability at 28.5 h, 10 µM stood at 93.4%.
Consider `O=C(N/N=C/c1cc(Br)cc(Br)c1O)C(Oc1ccccc1)Oc1ccccc1` [CBK262164], for which the viability at 28.5 h, 10 µM amounted to 95.6%.
`CC(=O)NC(=O)c1cccc(Br)c1` [CBK022890]: the viability at 28.5 h, 10 µM was found to be 99.3%.
For the compound `CCC1(C)CC(=O)c2cc(NC(=O)N3CCc4n[nH]cc4C3)ccc2O1` (stereo not shown) [CBK306846], the viability at 28.5 h, 10 µM was determined as 90.3%.
With `COc1ccc2nc(-c3cccc(NC(=O)c4ccc(F)cc4)c3)cn2n1` [CBK287826] the figure was 104%.
Consider `CC(=O)Nc1ccc(NC(=O)Cc2n[nH]c(=S)n2Cc2ccccc2)cc1` [CBK296754], for which the viability at 28.5 h, 10 µM came out at 91.1%.
With `COc1cnc(-c2cccc(C(F)(F)F)c2)c(NC(=O)Cc2ccccc2)n1` [CBK145308], the viability at 28.5 h, 10 µM turned out to be 104%.
Turning to `O=C(O)CC(NC(=O)C(c1ccccc1)c1ccccc1)c1ccco1` (stereo not shown) [CBK268729], the viability at 28.5 h, 10 µM was found to be 109%.
With `Cc1[nH]c(=O)[nH]c(=O)c1Cc1ccccc1` [CBK113244], the viability at 28.5 h, 10 µM worked out at 113%.
Consider `Cc1cc2[nH]c(=O)oc2cc1S(=O)(=O)NCCN1CCCCC1CO` (stereo not shown) [CBK307307], for which the viability at 28.5 h, 10 µM turned out to be 80.9%.
With `Cc1cc(C)n(CC(=O)N2CCCC2c2ccc(C)c(C)c2)c(=O)n1` (stereo not shown) [CBK282991] the figure was 99%; with `Cc1ccnc2c1C(=O)C1(CC2)CCN(S(=O)(=O)c2c(C)noc2C)CC1` [CBK059557T], 80.4%.
In the case of `CN(CCc1ccncc1)C(=O)CCc1cc(F)ccc1F` [CBK304876], the viability at 28.5 h, 10 µM stood at 90.6%.
For the compound `FC(F)(F)c1ccnc(SCCc2ccncc2)n1` [CBK105302], the viability at 28.5 h, 10 µM amounted to 95.3%.
Consider `Cn1c(SCC(=O)Nc2ccccc2[N+](=O)[O-])nc2ccccc2c1=O` [CBK265096], for which the viability at 28.5 h, 10 µM turned out to be 106%.
`COc1cc(CNCc2ccccn2)ccc1OCc1ccccc1C` [CBK270108C]: the viability at 28.5 h, 10 µM turned out to be 89.3%.
With `Cc1ccc(CC(=O)N2CCC(Cc3ccccc3-c3ccccc3C)(C(N)=O)CC2)cc1` [CBK285727] the figure was 98.2%; with `O=C(CCC(=O)c1ccc2c(c1)OCCO2)OCC(=O)c1ccc(Cl)c(Cl)c1` [CBK264825], 87.5%.
Consider `COc1ccc(C(=O)N2Cc3nc[nH]c3C[C@H]2c2nc(-c3ccc(OC)cc3)no2)cc1` [CBK288966], for which the viability at 28.5 h, 10 µM is 107%.
In the case of `O=C(Nc1ccccc1-c1nc2ccccc2[nH]1)c1ccncc1` [CBK270148], the viability at 28.5 h, 10 µM came to 94.5%.
Regarding `Cc1nc2ccccn2c1-c1csc(N)n1` [CBK288628B], the viability at 28.5 h, 10 µM worked out at 91.7%.
With `O=C(c1cscn1)N1CCCc2ccccc21` [CBK200348] the figure was 102%.
With `O=C(CSc1nc[nH]n1)Nc1ccccc1[N+](=O)[O-]` [CBK265005] the figure was 100%.
With `CCOC(=O)c1[nH]c2ccccc2c1NS(=O)(=O)Cc1ccccc1` [CBK047413] the figure was 93.1%.

These data come from publication PMC12040169 (PLOS Biology, 2025).
